Earlier results as cited in patent publication US20050255458A1, “Drug discovery assays based on the biology of chronic disease” (priority 2002, published 2005).
Like-named read-outs stand apart in the source and are kept apart here. Where a SMILES comes first, the peptide text is derived from it. [ ]: non-standard residue; d: D form. Aoe = N[C@@H](CCCCCC(=O)[C@@H]1CO1)C(=O)O

Columns and labels:
anagen hair follicles = conditions: cited from earlier work; for scalp hair growth: Philpott 1996
TF = conditions: cited from earlier work; for effect on Cu^+2 induced procoagulant activity: probucol 20, vitamin E 50, BHT 50, U74389G 20 μmol/L
AR gene = conditions: cited from earlier work
Rb = conditions: cited from earlier work; for increase in Rb mRNA: MEL cells, maximum on day three of induction
ERK1/2 = conditions: cited studies, various cells; cited from earlier work
ERK [1] = conditions: cited from earlier work
ACE [2] = molecular target: T1, ACE (Oryctolagus cuniculus, UniProt P12822); conditions: cited from earlier work
T1 construct: from tissue; host or cells: whole animal, in vivo (Watanabe rabbit)
T1 sequence (P12822 34-1310): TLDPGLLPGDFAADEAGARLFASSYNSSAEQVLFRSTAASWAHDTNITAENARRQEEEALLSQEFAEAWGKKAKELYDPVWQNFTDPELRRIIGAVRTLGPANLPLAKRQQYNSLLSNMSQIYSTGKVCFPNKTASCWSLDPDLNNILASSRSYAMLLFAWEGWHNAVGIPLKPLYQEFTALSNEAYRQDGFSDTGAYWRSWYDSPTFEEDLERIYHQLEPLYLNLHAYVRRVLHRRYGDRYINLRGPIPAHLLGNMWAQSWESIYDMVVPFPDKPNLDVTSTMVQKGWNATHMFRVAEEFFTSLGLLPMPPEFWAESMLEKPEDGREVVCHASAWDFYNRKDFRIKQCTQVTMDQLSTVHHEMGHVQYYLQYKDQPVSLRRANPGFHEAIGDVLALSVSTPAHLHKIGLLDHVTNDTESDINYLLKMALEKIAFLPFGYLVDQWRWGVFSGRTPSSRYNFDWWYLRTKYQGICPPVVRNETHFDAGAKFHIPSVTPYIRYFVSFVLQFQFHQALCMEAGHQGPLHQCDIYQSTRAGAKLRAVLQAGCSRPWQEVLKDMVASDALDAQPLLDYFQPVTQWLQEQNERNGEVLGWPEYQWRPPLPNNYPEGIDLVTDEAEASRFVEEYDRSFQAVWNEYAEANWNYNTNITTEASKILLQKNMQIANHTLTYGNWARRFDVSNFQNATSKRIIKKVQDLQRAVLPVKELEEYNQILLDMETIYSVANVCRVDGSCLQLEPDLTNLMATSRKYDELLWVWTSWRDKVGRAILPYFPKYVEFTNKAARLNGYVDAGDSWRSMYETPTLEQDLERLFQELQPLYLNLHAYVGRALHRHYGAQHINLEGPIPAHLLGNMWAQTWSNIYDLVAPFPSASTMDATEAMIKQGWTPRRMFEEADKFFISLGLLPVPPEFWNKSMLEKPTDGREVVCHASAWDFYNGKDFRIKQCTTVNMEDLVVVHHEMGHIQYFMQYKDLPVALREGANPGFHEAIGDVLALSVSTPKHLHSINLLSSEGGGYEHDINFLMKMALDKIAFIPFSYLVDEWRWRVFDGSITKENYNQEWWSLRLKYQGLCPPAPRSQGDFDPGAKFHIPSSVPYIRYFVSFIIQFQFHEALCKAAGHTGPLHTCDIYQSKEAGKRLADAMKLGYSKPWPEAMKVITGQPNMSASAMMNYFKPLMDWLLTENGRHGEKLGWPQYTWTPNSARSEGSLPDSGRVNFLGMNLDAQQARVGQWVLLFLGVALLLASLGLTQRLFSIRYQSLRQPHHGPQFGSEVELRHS

ACE [3] = molecular target: T2, ACE (Mus musculus, UniProt P09470); conditions: cited from earlier work
T2 sequence (P09470 35-1312): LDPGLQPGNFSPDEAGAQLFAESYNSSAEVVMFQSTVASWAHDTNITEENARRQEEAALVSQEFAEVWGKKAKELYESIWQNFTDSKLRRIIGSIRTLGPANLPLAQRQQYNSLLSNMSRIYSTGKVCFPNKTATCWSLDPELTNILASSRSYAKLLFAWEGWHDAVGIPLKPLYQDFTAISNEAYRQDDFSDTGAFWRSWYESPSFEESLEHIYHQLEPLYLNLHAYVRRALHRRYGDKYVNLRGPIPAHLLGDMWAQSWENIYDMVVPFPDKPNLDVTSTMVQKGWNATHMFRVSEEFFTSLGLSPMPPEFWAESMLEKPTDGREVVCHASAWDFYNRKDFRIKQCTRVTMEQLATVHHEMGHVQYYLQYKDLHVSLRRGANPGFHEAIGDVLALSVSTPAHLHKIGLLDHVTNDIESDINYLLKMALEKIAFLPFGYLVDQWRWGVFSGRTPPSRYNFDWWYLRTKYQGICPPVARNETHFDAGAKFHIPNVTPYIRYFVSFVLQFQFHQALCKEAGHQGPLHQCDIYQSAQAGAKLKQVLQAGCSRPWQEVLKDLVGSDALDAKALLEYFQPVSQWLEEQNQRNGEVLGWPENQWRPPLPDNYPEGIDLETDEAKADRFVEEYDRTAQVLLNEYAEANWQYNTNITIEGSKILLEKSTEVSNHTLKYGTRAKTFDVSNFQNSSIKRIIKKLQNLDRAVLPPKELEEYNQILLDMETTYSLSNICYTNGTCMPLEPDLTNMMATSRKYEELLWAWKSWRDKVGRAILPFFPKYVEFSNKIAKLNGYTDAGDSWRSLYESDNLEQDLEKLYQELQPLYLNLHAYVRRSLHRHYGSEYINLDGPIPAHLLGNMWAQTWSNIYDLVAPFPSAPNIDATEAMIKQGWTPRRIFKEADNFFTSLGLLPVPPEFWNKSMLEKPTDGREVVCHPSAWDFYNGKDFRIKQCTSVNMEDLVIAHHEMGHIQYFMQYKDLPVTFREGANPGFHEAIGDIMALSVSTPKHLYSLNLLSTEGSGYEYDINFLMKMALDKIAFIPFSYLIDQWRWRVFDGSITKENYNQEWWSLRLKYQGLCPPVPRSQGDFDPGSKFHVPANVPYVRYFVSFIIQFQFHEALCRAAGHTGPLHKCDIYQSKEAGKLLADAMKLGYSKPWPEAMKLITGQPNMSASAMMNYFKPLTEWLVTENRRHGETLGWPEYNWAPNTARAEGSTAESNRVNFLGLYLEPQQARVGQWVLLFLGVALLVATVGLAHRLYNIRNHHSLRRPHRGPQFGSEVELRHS

ERK [4] = conditions: A variety of cell types; cited from earlier work
[5] = test system: obese (fa/fa) Zucker rats; conditions: cited from earlier work

CNc1ccc2oc(C[C@H]3O[C@@]4(CC[C@H]3C)O[C@H]([C@H](C)C(=O)c3ccc[nH]3)[C@H](C)C[C@H]4C)nc2c1C(=O)O [A 23187]
hair growth (anagen hair follicles; 6 days culture, A 23187 2 μM, TPA 1 μM, IL-1 100 ng per ml (Hoffmann 1997)): significantly inhibited hair growth

Cc1cc(C(C)(C)C)c(O)c(C(C)(C)C)c1 [BHT]
effect on Cu^+2 induced procoagulant activity (TF): inhibited the Cu^+2 induced procoagulant activity

[Cu+2] [Cu+2]
TF mRNA level (TF; at 2 hours): 50% | increase of TF mRNA (TF; at 6 hours): 3.5 fold

CC(=O)O[C@]1(C(C)=O)CC[C@H]2[C@@H]3C=C(Cl)C4=CC(=O)[C@@H]5C[C@@H]5[C@]4(C)[C@H]3CC[C@@]21C [Cyproterone acetate]
Effect on [mRNAAR] (AR gene; LNCaP): ↓[mRNAAR]

C[S+](C)[O-] [DMSO, dimethyl sulfoxide]
increase in Rb mRNA (Rb): 11 fold

CC(=O)NCCCCCCNC(C)=O [HMBA, hexamethylene bisacetamide]
cells irreversibly committed to differentiate (Rb; DS19/Sc9, 48 h of culture): Over 90% | increase in Rb transcription (Rb; DS19/Sc9): 3.6 fold | increase in total pRb (Rb; DS19/Sc9 asynchronous cultures): 2-to 3 fold | increase in Rb mRNA (Rb): 7 fold

C[C@]12C=CC(=O)C=C1CC[C@@H]1C2=CC[C@]2(C)[C@@H](C(=O)CN3CCN(c4cc(N5CCCC5)nc(N5CCCC5)n4)CC3)CC[C@@H]12.O=C(O)/C=C\C(=O)O [U74389G]
effect on Cu^+2 induced procoagulant activity (TF): inhibited the Cu^+2 induced procoagulant activity

[Cu] [copper]
phosphorylation of ERK1/2 (ERK1/2): phosphorylation of ERK1/2

CC[C@H]1CN2CCc3cc(OC)c(OC)cc3[C@@H]2C[C@@H]1C[C@H]1NCCc2cc(OC)c(OC)cc21 [emetine]
c-mos expression and ERK phosphorylation (ERK [1]; starfish eggs): inhibition of c-mos expression and ERK phosphorylation

C[C@]12CC[C@@H]3c4ccc(O)cc4CC[C@H]3[C@@H]1CCC2=O [estron]
phosphorylation of ERK1/2 (ERK1/2): phosphorylation of ERK1/2

CC[C@H](C)[C@@H]1NC(=O)[C@H](Cc2ccc(O)cc2)NC(=O)[C@@H](N)CSSC[C@@H](C(=O)N2CCC[C@H]2C(=O)N[C@@H](CC(C)C)C(=O)NCC(N)=O)NC(=O)[C@H](CC(N)=O)NC(=O)[C@H](CCC(N)=O)NC1=O [oxytocin]
phosphorylation of ERK1/2 (ERK1/2): phosphorylation of ERK1/2

CC(C)(Sc1cc(C(C)(C)C)c(O)c(C(C)(C)C)c1)Sc1cc(C(C)(C)C)c(O)c(C(C)(C)C)c1 [probucol]
effect on Cu^+2 induced procoagulant activity (TF): inhibited the Cu^+2 induced procoagulant activity

C/C=C(/C)C(=O)O[C@H]1C(C)=C2[C@H]([C@@H]1OC(=O)CCCCCCC)[C@@](C)(OC(C)=O)C[C@H](OC(=O)CCC)[C@@]1(O)[C@H]2OC(=O)[C@@]1(C)O [thapsigargin]
phosphorylation of ERK1/2 (ERK1/2): phosphorylation of ERK1/2

O=C1N[C@@H](Cc2ccccc2)C(=O)N2CCC[C@@H]2C(=O)N[C@@H](CCCCCC(=O)[C@@H]2CO2)C(=O)N[C@H]1Cc1ccccc1 [trapoxin] (cyclo(FF[dP][Aoe]))
phosphorylation of ERK1/2 (ERK1/2): phosphorylation of ERK1/2

CC(/C=C/C(=O)NO)=C\[C@@H](C)C(=O)c1ccc(N(C)C)cc1 [trichostatin A]
phosphorylation of ERK1/2 (ERK1/2): phosphorylation of ERK1/2

[Zn] [zinc]
phosphorylation of ERK1/2 (ERK1/2): phosphorylation of ERK1/2

C[C@H](CSC(=O)c1ccccc1)C(=O)N1C[C@@H](Sc2ccccc2)C[C@H]1C(=O)O [zofenopril]
decrease of aortic corrected cumulative lesion area (ACE [2]; 0.5 mg/kg/day, 6 weeks): 34% | decrease of common carotid corrected cumulative lesion area (ACE [2]; 0.5 mg/kg/day, 6 weeks): 39% | intimal presence of native LDL (ACE [2]; p<0.01 vs placebo): decreased | intimal presence of macrophage derived foam cells (ACE [2]; p<0.05 vs placebo): decreased | macrophage-derived foam cells staining in the intima (ACE [3]; 1 mg/kg/day): significant decrease in macrophage-derived foam cells staining | native LDL staining in the intima (ACE [3]; 1 mg/kg/day): significant decrease in native LDL staining | total lesion area compared to placebo (ACE [3]; zofenopril 0.05 or 1, captopril 5, enalapril 0.5 mg/kg/day, 29 weeks): significantly decreased total lesion area

IL-β: printed IL-β, presumably IL-1β
scalp hair growth (anagen hair follicles): inhibition of scalp hair growth

TNFα
Effect on [ERK^phos] (ERK [4]): ↑[ERK^phos] | AR transcription in run-on assays (AR gene; LNCaP): No change in run-on | Effect on [mRNAAR] (AR gene; LNCaP): ↓[mRNAAR] | scalp hair growth (anagen hair follicles): inhibition of scalp hair growth | decrease of nighttime feeding (12 hours) ([5]; 50 ng/rat): 13% | decrease of short-term feeding (4 hours) ([5]; 50 ng/rat): 17% | decrease of total daily food intake ([5]; 50 ng/rat): 11% | decrease of nighttime feeding (12 hours) ([5]; 100 ng/rat): 14% | decrease of short-term feeding (4 hours) ([5]; 100 ng/rat): 20% | decrease of total daily food intake ([5]; 100 ng/rat): 12% | decrease of nighttime feeding (12 hours) ([5]; 500 ng/rat): 13% | decrease of short-term feeding (4 hours) ([5]; 500 ng/rat): 20% | decrease of total daily food intake ([5]; 500 ng/rat): 11%

estrogen
growth of isolated hair follicles (anagen hair follicles; Kondo 1990): growth inhibition

interferon-γ: ERK agent cytokine
phosphorylation of ERK1/2 (ERK1/2): phosphorylation of ERK1/2

interleukin 1β: cytokine, ERK agent
phosphorylation of ERK1/2 (ERK1/2): phosphorylation of ERK1/2

interleukin 6: cytokine, ERK agent
phosphorylation of ERK1/2 (ERK1/2): phosphorylation of ERK1/2 | AR mRNA (AR gene; LNCaP (Lin 2001)): decreased AR mRNA | ERK phosphorylation (ERK [1]; AF-10 human B cell line): increased ERK phosphorylation | ERK phosphorylation (ERK [1]; LNCaP cells): increased ERK phosphorylation

transforming growth factor β
phosphorylation of ERK1/2 (ERK1/2): phosphorylation of ERK1/2

tumor necrosis factor α
phosphorylation of ERK1/2 (ERK1/2): phosphorylation of ERK1/2
